In patent publication US20180206489A1, “REPELLENT EFFECTIVE AGAINST ANOPHELES GAMBIAE” (Simon Fraser University, priority 2014, published 2018):
Entries after “also recorded” stand apart in the source; their conditions may differ.

Legend:
Anopheles gambiae [1] = assay: Behavioural olfactometer assay with human odor source protected by chemical and alternate plant (honey) odor source; format: in vivo; conditions: for repelling efficacy, DEET vs 3c{3,6}: 0.1% solution; for total experiment time (time in the proximity of the human odor source) vs unprotected control / probe time (time on the human odor source) vs unprotected control / number of probe attempts at the human odor source vs unprotected control: 1% chemical on mesh over human odor, P<0.05; for total experiment time (time in the proximity of the human odor source) vs unprotected control: FIG. 5A; for probe time (time on the human odor source) vs unprotected control: FIG. 5B; for number of probe attempts at the human odor source vs unprotected control: FIG. 5C
Experimental: The olfactometer procedure and materials used in this study are similar to those employed by Zappia and Roitberg (2012) Energy-state dependent responses of Anopheles gambiae (Diptera: Culicidae) to simulated bednet-protected hosts. J. Vector Ecol. 37 (1): 173-8, herein incorporated by reference in its entirety. The behavioral assay was conducted in a custom-made glass olfactometer tube (145 cm long, 17 cm diameter) (FIG. 2). A mosquito release chamber was located on one side of the tube and consisted of a small tube with a gate attached separating the mosquito from the experiment arena. A small sac (10 cm×3 cm in diameter) made of mesh (Onsight equipment insecticide free hiker's mosquito shelter) was positioned 60 cm from the end of the release chamber. The mesh sac was immersed in the treatment compound immediately before trials and allowed to dry before the trial began. The sac contained human odor in the form of a sock (Secret brand, nylon) conditioned through 30 minutes of strenuous exercise and incubated at 28° C. and 80% RH for 24 hours before use. This sock was tested to ensure it was attractive to mosquitoes at the beginning of each trial day (by placing it in a non-experimental colony cage and observing whether females in the cage would seek it out to probe at it) and replaced every 5 days. A breathing tube was also attached to the human odor/chemical complex that allowed a one-way flow of exhaled carbon dioxide into the arena through the sock to make the human odor more attractive to A. gambiae. Carbon dioxide was exhaled into this tube once every 15 seconds during trials. An odor-producing sugar source was located 73 cm from the human odor/chemical complex. This consisted of a cotton ball impregnated with approximately 5 g of honey (Kidd Bros, Alfalfa Clover). The ball was suspended on a metal stage from the top of the olfactometer tube. This gave the mosquito an alternative during trials from seeking the human odor source. At the opposite end of the tube from the release gate was an air source pumping a one-way source of carbon-filtered air into the olfactometer arena flowing from the sugar source to the human odor to the release gate at a rate of 0.025 L/s. The olfactometer was rinsed daily with acetone and water to minimize residual odors. A 2×5 factorial design was used with solvent type and chemical as factors. The solvent types tested were a 1:1 and 1:5 ratio of isopropyl alcohol to water. Two different solvent types were assessed to determine the lowest ratio of alcohol to water that would be effective, since a lower concentration of alcohol is both more cost effective and practical in the field. […] In addition, we tested DEET™ as a positive control compound. Two concentrations of DEET™ and 3c{3,6} (0.1% and 1%) and a control were assessed for each solvent consisting of the solvent without the active ingredient (0% concentration). Female A. gambiae (4-7 days old, not previously blood-fed, and without a visibly swollen abdomen, wing size 2.93 mm-3.49 mm) were starved for 24 hours before assays. All assays were run under dim red light (1.79 μmol photons/(s×m^2)) in the colony chamber 1-5 hours after darkness since this is the period in which blood-seeking behaviour in females is highest. Mosquitoes were allowed to acclimate in the release chamber for 3 minutes before trials began. After 3 minutes, the release gate was opened. […] When the mosquito entered the arena, timing began. During trials, the olfactometer design was such that the mosquito encountered the human odor/chemical first, followed by the sugar odor source. The experiment arena consisted of the area in the olfactometer that was placed in front of the plant odor source, relative to the release point of the mosquito. Trials ended when the mosquito landed anywhere in the arena and rested for 5 minutes or flew to the plant sugar source. […]

Culex quinquefasciatus = conditions: cited from earlier work
Aedes aegypti = conditions: cited from earlier work
Anopheles gambiae [2] = assay: Electroantennogram (EAG) screening assay on female antennae
Experimental: EAG recordings were obtained using a Combi Probe (Syntech, Kirchzarten, Germany) fitted with glass capillary Ag/AgCl electrodes, filled with insect Ringer solution. Fine, tapered capillaries were prepared on a Gravipull-2 capillary puller (Kation Scientific, Minneapolis, USA). Data were recorded with an IDAC-4 data acquisition system (Syntech), interfaced with a computer that had the software EAGpro (version 1.1, Syntech). Stimuli were dissolved in hexane […] and applied to small filter papers (Whatman No. 1) (10 μL). This gave doses on the filter paper of 1 μg, 10 μg and 100 μg. After evaporation of the solvent, the filter papers were placed in a Pasteur pipette. Pipettes were attached to a CS-55 stimulus controller ([…]) that delivered a pulse of air (30 mL/s) through the pipette and into a metal stimulus delivery tube (Ø 0.95 cm×18 cm) that dispensed a continuous airflow (25 mL/s) and was positioned approximately 2 cm from the mosquito antenna so that the airflow contacted the entire antenna. The duration of the pulse was 0.7 s. Screening took place on A. gambiae females 4-7 days post-eclosion. Females were starved (sugar water replaced with distilled water in the colony cage) for 24 hours before trials to ensure a standard hunger level in test subjects. Mosquitoes were prepared for trials in this manner: the head of the mosquito was excised and the base of the head was connected to the ground electrode. The tip of the distal segment of one antenna was cut and inserted it into the recording electrode. Only mosquitoes producing a steady baseline reading were used for trials. All readings were taken within 10 minutes of the time the mosquito was prepared and each female was tested only once with one full chemical series. Trials included human scent emanating from a sock (Tradition brand, nylon) previously conditioned through 30 minutes of vigorous exercise by a volunteer and incubated at 28° C. and 80% RH for 24 hours. […] For trials, the sock was cut into 0.5 cm×3 cm strips and put into the pipette dispensing the odor pulses. Odors in each run were presented to the mosquito in the following order with at least 25 seconds between odor pulses: no odor, no odor, 10 μg DEETTM, 10 μg chemical, no odor, no odor, human scent only, human scent with 1 μg chemical, human scent with 10 μg chemical, human scent with 100 μg chemical, human scent only, no odor, no odor, 10 μg DEETTM. Several of these pulses served as internal controls to ensure that the mosquito antenna was still responding to the stimuli, or the human odor was detectable to the mosquito. One of the pulses, such as air pulse, produced a response, but it is smaller than that of odor or of presented compounds, seven […]. The DEETTM pulses were included as a reference. The pulses of interest were those containing both the human odor and chemical of interest in various concentrations. 9 runs were completed for each chemical tested and recorded the amplitude of the peaks produced for each odor pulse. […] All data were analyzed in R version 2.15.0 (R Development Core Team, 2012). […] EAG activity values were analyzed using a generalized least squares ANOVA with a variance structure that accounts for measurements within runs being more similar than measurements between runs. […] Behavioural assay data was analyzed using a MANOVA with solvent type and chemical (including concentration) as factors. […]

[3] = tested on: neurons in the sacculus on the antenna that express an ionotropic receptor (IR40a); conditions: cited from earlier work
[4] = tested on: olfactory receptor neurons on the maxillary palps of A. gambiae; conditions: cited from earlier work

CCN(CC)C(=O)c1cccc(C)c1 [DEET™, N—N-diethyl-meta-toluamide]
repelling efficacy, DEET vs 3c{3,6} (Anopheles gambiae [1]): more effective at repelling A. gambiae individuals than a 0.1% solution of 3c{3,6} | total experiment time (time in the proximity of the human odor source) vs unprotected control (Anopheles gambiae [1]): spent less time in the proximity of the human odor source | probe time (time on the human odor source) vs unprotected control (Anopheles gambiae [1]): spent less time on the human odor source | number of probe attempts at the human odor source vs unprotected control (Anopheles gambiae [1]): attempted to probe less | direct detection of DEET (Culex quinquefasciatus): detect DEET™ directly | inhibition of neuron response to 1-octen-3-ol (Culex quinquefasciatus): this inhibition was not detected | direct detection of DEET (Aedes aegypti): detect DEET™ directly | inhibition of neuron response to 1-octen-3-ol (Aedes aegypti): this inhibition was not detected | enhancement or inhibition of antennal responses to human scent (Anopheles gambiae [2]; compound + human scent): did not affect the responses to the human scent | antennal (olfactory) response to compound by itself (Anopheles gambiae [2]; compound alone, EAG): responded; also recorded: elicited olfactory responses by itself | stimulation of IR40a-expressing sacculus neurons [3]: stimulate neurons in the sacculus on the antenna of Drosophila melanogaster | inhibition of olfactory receptor neurons (decreased response to 1-octen-3-ol) [4]: inhibits olfactory receptor neurons on the maxillary palps of A. gambiae

C=CCOc1ccc(OCCC)cc1 [3c{3,6}, 1-allyloxy-4-propoxybenzene]
repelling efficacy, DEET vs 3c{3,6} (Anopheles gambiae [1]): a 0.1% solution of DEET™ was more effective | total experiment time (time in the proximity of the human odor source) vs unprotected control (Anopheles gambiae [1]): spent less time in the proximity of the human odor source | probe time (time on the human odor source) vs unprotected control (Anopheles gambiae [1]): spent less time on the human odor source | number of probe attempts at the human odor source vs unprotected control (Anopheles gambiae [1]): attempted to probe less | behavioural response compared with DEET (Anopheles gambiae [1]; 1% solution): comparable response in mosquitoes to a 1% solution of DEET™ | repellent efficacy against A. gambiae (overall conclusion) (Anopheles gambiae [1]; in vivo): effective repellent for A. gambiae; also recorded: effective repellent against A. gambiae | depolarization response of compound by itself (Anopheles gambiae [2]; 100 μg dose, FIG. 6): one of the largest depolarization responses by itself | air-corrected antennal depolarization, chemical alone (without the human odor) (Anopheles gambiae [2]; FIG. 4, difference not significant (P>0.05)): larger air-corrected antennal depolarization than the other compounds tested | EAG activity: response to repellent/human odor source combination compared to DEET reference peak (Anopheles gambiae [2]; human scent with 1 μg, 10 μg, 100 μg chemical (pooled), FIG. 3): largest activity of all the compounds tested
